The record followed here is ChEMBL document CHEMBL4219121, “Synthesis, antitumor activity and DNA binding features of benzothiazolyl and benzimidazolyl substituted isoindolines” (Bioorg Med Chem, 2018).

Active and inactive are the calls of the source. The calls are words filed in the database; no cut-off is given here.

Data set [1] deals with Calf thymus DNA. In words: Binding affinity to calf thymus DNA at 1 to 50 uM by circular dichroism spectral analysis. In kind it is nucleic-acid assay. To be noted: Bos taurus. In general terms: CD spectra are sensitive to the conformation of chiral molecules.
Data set [2] has as its system Calf thymus DNA. Description: Binding affinity to calf thymus DNA assessed as change in melting temperature at drug/DNA ratio of 0.25 by spectrophotmetric method. Type of data set: nucleic-acid assay. The conditions noted are these: Bos taurus.
The subject of data set [3] is Calf thymus DNA. In words: Binding affinity to calf thymus DNA assessed as change in melting temperature at drug/DNA ratio of 0.5 by spectrophotmetric method. In kind it is nucleic-acid assay. The conditions noted are these: Bos taurus.
For a further data set, the system named is CAKI-2. Description: Cytotoxicity against human Caki2 cells after 72 hrs by MTT assay. Type of data set: functional, cell-based. The conditions noted are these: CAKI-2, 72 h. A general note: Tetrazolium dyes change colour on reduction, which living cells bring about.
For the next data set, the system named is HeLa. In words: Antiproliferative activity against human HeLa cells after 72 hrs by MTT assay. Type of data set: functional, cell-based.
A further data set deals with BJ. In words: Antiproliferative activity against human BJ cells after 72 hrs by MTT assay. Type of data set: cell-based.
For the next data set, the system named is MCF7. Description: Antiproliferative activity against human MCF7 cells after 72 hrs by MTT assay. The conditions noted are these: MCF7, 72 h. Type of data set: functional, cell-based.
Another data set relates to HepG2. In words: Antiproliferative activity against human HepG2 cells after 72 hrs by MTT assay. Type of data set: functional, cell-based. To be noted: HepG2, 72 h.
The target in data set [4] is T1, DNA topoisomerase 1 (Homo sapiens) (UniProt P11387).
T1 sequence (whole entry): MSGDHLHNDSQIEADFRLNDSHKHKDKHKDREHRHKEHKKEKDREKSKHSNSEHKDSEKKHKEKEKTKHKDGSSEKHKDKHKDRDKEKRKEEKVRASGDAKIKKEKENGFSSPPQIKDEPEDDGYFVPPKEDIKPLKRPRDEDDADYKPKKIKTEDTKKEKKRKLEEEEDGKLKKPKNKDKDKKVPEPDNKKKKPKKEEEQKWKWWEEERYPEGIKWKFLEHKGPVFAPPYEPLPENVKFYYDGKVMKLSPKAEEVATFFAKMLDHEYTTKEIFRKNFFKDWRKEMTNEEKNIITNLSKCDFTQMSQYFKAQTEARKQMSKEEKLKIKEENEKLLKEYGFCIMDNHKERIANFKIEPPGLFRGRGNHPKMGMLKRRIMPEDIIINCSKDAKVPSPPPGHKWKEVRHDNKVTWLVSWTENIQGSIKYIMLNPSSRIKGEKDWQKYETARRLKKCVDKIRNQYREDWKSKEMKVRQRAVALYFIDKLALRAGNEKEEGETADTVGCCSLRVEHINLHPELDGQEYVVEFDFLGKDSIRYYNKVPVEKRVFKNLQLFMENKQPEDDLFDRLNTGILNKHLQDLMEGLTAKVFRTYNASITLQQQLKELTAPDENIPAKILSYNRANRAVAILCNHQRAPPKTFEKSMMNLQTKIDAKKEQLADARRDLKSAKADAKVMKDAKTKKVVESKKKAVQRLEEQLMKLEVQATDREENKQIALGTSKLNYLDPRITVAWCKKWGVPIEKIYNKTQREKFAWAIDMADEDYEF
Description: Poison activity at human topoisomerase1 assessed as accumulation of nicked DNA at 20 uM using supercoiled pUC19 as substrate pretreated with substrate for 45 mins followed by enzyme addition measured by agarose gel electrophoresis relative to control.

Data set [5] is described as follows: Drug uptake in nucleolus of human Caki2 cells at 50 uM measured after 5 hrs by Phalloidin CruzFluorTM 488 conjugate/propidium iodide staining based fluorescence microscopic analysis. In kind it is ADME, subcellular. The conditions noted are these: caki-2, 5 h.
In another data set the test system is SW-620. Description: Antiproliferative activity against human SW620 cells after 72 hrs by MTT assay. In kind it is functional, cell-based. To be noted: SW-620, 72 h.
Data set [6] is described as follows: Drug uptake in nucleus of human Caki2 cells at 50 uM measured after 5 hrs by Phalloidin CruzFluorTM 488 conjugate/propidium iodide staining based fluorescence microscopic analysis. In kind it is ADME, subcellular. The conditions noted are these: caki-2, 5 h.
Data set [7] has as its target T1, DNA topoisomerase 1 (Homo sapiens). Description: Inhibition of human topoisomerase1-mediated DNA relaxation assessed as DNA intercalation at 5 to 50 uM using supercoiled pUC19 as substrate pretreated with substrate for 45 mins followed by enzyme addition measured by agarose gel electrophoresis.
A short description of data set [8]: Drug uptake in human Caki2 cells at 50 uM measured after 5 hrs by Phalloidin CruzFluorTM 488 conjugate/propidium iodide staining based fluorescence microscopic analysis. In kind it is ADME, cell-based. To be noted: caki-2, 5 h.

For orientation: ΔTm means the change in melting temperature against a reference sample. One may read the IC50 as the concentration that inhibits the measured activity by half.

Turning to `Cl.Cl.c1ccc2c(c1)CN(c1nc3ccc(C4=NCCN4)cc3[nH]1)/C2=N/c1nc2ccc(C3=NCCN3)cc2[nH]1`, the result in the data set with Calf thymus DNA [1] was Active. Further, the ΔTm with Calf thymus DNA [2] is 9.3 °C; in the data set on Calf thymus DNA [3], 18.5 °C. Moreover, the IC50 in the data set on CAKI-2 is 80.2 µM; in the data set with HeLa it was 15.4 µM; in the data set with BJ it was 22.9 µM; in the data set with MCF7 it was 23.4 µM; in the data set with HepG2, 9.01 µM; in the data set with SW-620, 35 µM. Besides, the fold change (FC) in data set [4] came out at 1.8. Further, the Drug uptake result in data set [5], in [6] and in [8] was “Active” each time. The “inhibition (qualitative)” value in [7] was “Active”.
